Measured values: PMC5945563 (Chemistry Central Journal, 2018)
Structures can show the parent of a compound that is named as a salt.

Columns and labels:
[1] = biological target: human 5-HT6 receptor (Homo sapiens, UniProt P50406); test: Radioligand binding assay, [3H]-LSD, HEK293 cell membranes
[2] = biological target: human 5-HT7b receptor (Homo sapiens, UniProt P34969); test: Radioligand binding assay, [3H]-5-CT, HEK293 cell membranes
[3] = biological target: T1, human 5-HT1A receptor (Homo sapiens, UniProt P08908); test: Radioligand binding assay, [3H]-8-OH-DPAT, HEK293 cell membranes
T1 sequence (P08908 1-422): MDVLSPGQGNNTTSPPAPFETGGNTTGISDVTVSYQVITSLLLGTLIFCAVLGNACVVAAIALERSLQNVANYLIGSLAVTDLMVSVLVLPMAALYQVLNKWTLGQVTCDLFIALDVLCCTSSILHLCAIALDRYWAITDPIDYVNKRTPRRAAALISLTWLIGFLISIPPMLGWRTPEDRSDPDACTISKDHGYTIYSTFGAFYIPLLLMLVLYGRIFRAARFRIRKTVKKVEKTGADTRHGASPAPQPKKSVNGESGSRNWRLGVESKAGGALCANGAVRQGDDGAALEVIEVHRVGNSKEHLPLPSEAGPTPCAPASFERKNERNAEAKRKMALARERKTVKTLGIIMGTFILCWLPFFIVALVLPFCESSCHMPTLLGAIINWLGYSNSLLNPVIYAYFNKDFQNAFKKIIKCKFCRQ

[4] = biological target: human D2L receptor (Homo sapiens, UniProt P14416); test: Radioligand binding assay, [3H]-raclopride, HEK293 cell membranes
Chain of human D2L receptor (P14416 whole entry): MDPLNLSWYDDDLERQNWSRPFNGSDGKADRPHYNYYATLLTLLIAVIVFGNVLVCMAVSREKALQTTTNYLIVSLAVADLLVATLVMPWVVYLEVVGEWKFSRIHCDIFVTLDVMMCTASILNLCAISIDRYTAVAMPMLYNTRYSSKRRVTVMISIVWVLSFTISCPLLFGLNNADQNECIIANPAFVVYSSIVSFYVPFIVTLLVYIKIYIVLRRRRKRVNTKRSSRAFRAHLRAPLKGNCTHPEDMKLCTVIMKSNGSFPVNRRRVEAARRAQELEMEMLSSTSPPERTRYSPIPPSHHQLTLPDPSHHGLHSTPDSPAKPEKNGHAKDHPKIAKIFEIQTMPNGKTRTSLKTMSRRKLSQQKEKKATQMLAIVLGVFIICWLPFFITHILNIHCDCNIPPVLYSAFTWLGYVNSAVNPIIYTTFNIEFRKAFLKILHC

Chain of human 5-HT7b receptor (P34969 1-432 limits assumed): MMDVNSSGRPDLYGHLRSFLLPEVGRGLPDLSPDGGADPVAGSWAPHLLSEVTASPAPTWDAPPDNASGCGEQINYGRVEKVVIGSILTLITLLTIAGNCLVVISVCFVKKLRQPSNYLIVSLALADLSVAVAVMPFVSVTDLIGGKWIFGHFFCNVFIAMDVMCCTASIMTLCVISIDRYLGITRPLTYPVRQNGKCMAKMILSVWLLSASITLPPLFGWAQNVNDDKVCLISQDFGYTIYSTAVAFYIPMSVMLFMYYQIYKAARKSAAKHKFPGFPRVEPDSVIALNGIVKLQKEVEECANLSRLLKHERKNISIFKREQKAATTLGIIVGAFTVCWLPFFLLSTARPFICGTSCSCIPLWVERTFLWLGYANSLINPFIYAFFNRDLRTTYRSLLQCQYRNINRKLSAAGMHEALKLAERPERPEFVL
Chain of human 5-HT6 receptor (P50406 whole entry): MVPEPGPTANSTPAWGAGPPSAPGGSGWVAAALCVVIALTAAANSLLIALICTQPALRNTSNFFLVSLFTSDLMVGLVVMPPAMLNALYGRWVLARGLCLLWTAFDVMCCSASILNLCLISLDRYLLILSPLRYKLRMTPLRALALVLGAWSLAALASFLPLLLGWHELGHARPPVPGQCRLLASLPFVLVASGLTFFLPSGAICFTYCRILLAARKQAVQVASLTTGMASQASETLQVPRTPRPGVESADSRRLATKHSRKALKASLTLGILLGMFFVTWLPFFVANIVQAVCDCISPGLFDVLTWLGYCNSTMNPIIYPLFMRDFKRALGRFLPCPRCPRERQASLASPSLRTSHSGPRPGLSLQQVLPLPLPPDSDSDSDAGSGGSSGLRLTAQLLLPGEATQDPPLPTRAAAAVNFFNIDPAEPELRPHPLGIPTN

Row | Structure (SMILES) | melting point [°C] | Ki [1] [nM] | Ki [2] [nM] | Ki [3] [nM] | Ki [4] [nM]
1 | O=S(=O)(NCCCCN1CCN(c2ccccc2)CC1)c1cc2ccccc2cn1 (as salt: hydrochloride) [Compound 1, N-(4-(4-phenyl)piperazin-1-yl)butyl)isoquinoline-3-sulfonamide hydrochloride] | 198 to 199 | – | – | – | –
2 | Cl.O=S(=O)(NCCCCN1CCN(c2cccc(Cl)c2)CC1)c1cc2ccccc2cn1 [Compound 2, N-(4-(4-(3-chlorophenyl)piperazin-1-yl)butyl)isoquinoline-3-sulfonamide hydrochloride] | 246 to 247 | 436 | 49 | 38 | 47
3 | Cc1cccc(N2CCN(CCCCNS(=O)(=O)c3cc4ccccc4cn3)CC2)c1C.Cl [Compound 4, N-(4-(4-(2,3-dimethylphenyl)piperazin-1-yl)butyl)isoquinoline-3-sulfonamide hydrochloride] | 215 to 216 | 916 | 85 | 73 | 23
